Data on 10 compounds can be found in ChEMBL document CHEMBL1201862, “PubChem BioAssay data set” (2004).

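Values below derive from 48-hour exposures of cells grown in 96-well plates, with endpoints linearly interpolated between the two concentrations bracketing the appropriate inhibition level. Here, GI50 denotes the concentration required for 50% inhibition of growth.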 Activity calls are given as the source filed them. No stated cut-off is given here; in the data, active = GI50 up to about 1.1 µM and inactive = higher.

Test systems include A549; ACHN; CAKI-1; HL-60; MDA-MB-435; MDA-N; Malme-3M; NCI-H226; NCI-H23; OVCAR-3; OVCAR-5; OVCAR-8; SF-268; SF-295; SK-MEL-2; SN12C; SNB-19; SNB-75; T47D; TK-10.
Common to all, as to assay: NCI tumour cell line growth inhibition, 48 h

In the case of `Cc1cc(=O)oc2c(CNC(Cc3ccccc3)C(=O)O)c(O)ccc12` (configuration not stated), the GI50 with A549, with ACHN, in the test with CAKI-1, with HL-60, with MDA-MB-435 and in the test with MDA-N was > 100 µM (inactive) in each case. Moreover, the GI50 with Malme-3M was 61.5 µM (inactive); in the test on NCI-H226, > 100 µM (inactive); in the test on NCI-H23, > 100 µM (inactive); in the test on OVCAR-3 it was > 100 µM (inactive); in the test on OVCAR-5, > 100 µM (inactive); with OVCAR-8 it was > 100 µM (inactive). Further, the GI50 with SF-268 was > 100 µM (inactive); in the test on SF-295 it was > 100 µM (inactive); in the test on SK-MEL-2, > 100 µM (inactive); in the test on SN12C, > 100 µM (inactive); in the test with SNB-19, > 100 µM (inactive); in the test with SNB-75, 82.2 µM (inactive). Also, the GI50 with T47D and in the test on TK-10 was > 100 µM (inactive) throughout.

As for `O=C(CC(C(=O)c1ccsc1)c1cccs1)c1ccsc1` (configuration not stated), the GI50 is 46.6 µM (inactive) with A549; 42 µM (inactive) with ACHN; > 100 µM (inactive) in the test on CAKI-1; 31.8 µM (inactive) in the test on HL-60; 34.8 µM (inactive) with MDA-MB-435; 30.1 µM (inactive) in the test with MDA-N. Moreover, the GI50 with Malme-3M was 56.8 µM (inactive); with NCI-H226, > 100 µM (inactive); with NCI-H23, 32.6 µM (inactive); in the test on OVCAR-5, > 100 µM (inactive); with OVCAR-8, 60.5 µM (inactive); in the test with SF-268, 85.9 µM (inactive). The GI50 in the test with SF-295 is 43.7 µM (inactive); in the test on SK-MEL-2 it was 94 µM (inactive); in the test with SN12C, 65.6 µM (inactive); in the test on SNB-19 it was > 100 µM (inactive); in the test on SNB-75, 27.4 µM (inactive); in the test with T47D, 21.4 µM (inactive). Further, the GI50 with TK-10 is > 100 µM (inactive).

Consider `CC1(C)N=[N+]([O-])C1(C)C`, for which the GI50 with A549, with CAKI-1, in the test on HL-60, in the test on MDA-MB-435, in the test with MDA-N and with Malme-3M was > 100 µM (inactive) throughout. Besides, the GI50 in the test on NCI-H226, in the test with NCI-H23, in the test with OVCAR-3, with OVCAR-5, with OVCAR-8 and in the test with SF-268 was > 100 µM (inactive) in each case. Besides, the GI50 in the test with SK-MEL-2, in the test on SN12C, in the test with SNB-19, with SNB-75, in the test on T47D and in the test on TK-10 was > 100 µM (inactive) each time.

For `C=C(Br)C[N+]12CN3CN(CN(C3)C1)C2`, the GI50 with A549, with ACHN, with CAKI-1, with HL-60, in the test with MDA-MB-435 and in the test on MDA-N was > 100 µM (inactive) each time. Moreover, the GI50 in the test with Malme-3M, in the test on NCI-H226, with NCI-H23, in the test with OVCAR-3, in the test on OVCAR-5 and in the test on OVCAR-8 was > 100 µM (inactive) each time. Also, the GI50 in the test with SF-268, in the test with SF-295, in the test on SK-MEL-2, in the test with SN12C, in the test with SNB-19 and in the test with SNB-75 was > 100 µM (inactive) in each case. Moreover, the GI50 in the test with T47D was > 100 µM (inactive).

For the compound `CNC(=S)NN=C1NCCCN1`, the GI50 in the test with A549, in the test with ACHN, with CAKI-1, in the test on HL-60, in the test with MDA-MB-435 and in the test with MDA-N was > 100 µM (inactive) each time. Moreover, the GI50 in the test on Malme-3M, in the test with NCI-H226, in the test on NCI-H23, in the test on OVCAR-3, with OVCAR-5 and in the test on OVCAR-8 was > 100 µM (inactive) throughout. Moreover, the GI50 in the test on SF-268, with SF-295, in the test with SK-MEL-2, in the test on SNB-19, in the test on SNB-75 and in the test on T47D was > 100 µM (inactive) throughout. Moreover, the GI50 in the test with TK-10 is > 100 µM (inactive).

With `O=C(OC1CN2CCC1CC2)N(c1ccccc1)c1ccccc1` (configuration not stated), the GI50 is > 100 µM (inactive) with A549; > 100 µM (inactive) in the test with ACHN; > 100 µM (inactive) with CAKI-1; 24.9 µM (inactive) with HL-60; > 100 µM (inactive) in the test with MDA-MB-435; > 100 µM (inactive) in the test on MDA-N. Further, the GI50 in the test with Malme-3M, with NCI-H226, in the test on NCI-H23, with OVCAR-3, with OVCAR-5 and in the test on OVCAR-8 was > 100 µM (inactive) each time. Further, the GI50 is > 100 µM (inactive) in the test with SF-268; 51.1 µM (inactive) in the test on SF-295; > 100 µM (inactive) with SK-MEL-2; > 100 µM (inactive) in the test with SN12C; > 100 µM (inactive) in the test with SNB-19; 46.2 µM (inactive) in the test with SNB-75. Besides, the GI50 was > 100 µM (inactive) with T47D and 56.2 µM (inactive) with TK-10.

`CCOC(=O)C(=Cc1ccccc1Cl)C(=O)OCC`: the GI50 in the test on A549 was 2.21 µM (inactive); with ACHN, 2.61 µM (inactive); in the test with CAKI-1, 2.02 µM (inactive); in the test on HL-60 it was 1.23 µM (inactive); in the test on MDA-MB-435, 1.13 µM (inactive); in the test with MDA-N, 1.12 µM (active). The GI50 with Malme-3M is 1.82 µM (inactive); in the test with NCI-H226, 2.9 µM (inactive); in the test with NCI-H23, 1.66 µM (inactive); in the test with OVCAR-3, 1.41 µM (inactive); with OVCAR-5, 1.88 µM (inactive); in the test on OVCAR-8, 0.938 µM (active). Also, the GI50 with SF-268 was 2.19 µM (inactive); in the test with SF-295 it was 2.47 µM (inactive); in the test with SK-MEL-2 it was 2.03 µM (inactive); in the test on SN12C, 1.6 µM (inactive); with SNB-19, 1.84 µM (inactive); with SNB-75, 0.0174 µM (active). Moreover, in the test with T47D, the GI50 is 2.64 µM (inactive).

Turning to `CC(C)(C)c1cc(-c2ccc(-c3cc(C(C)(C)C)c(O)c(C(C)(C)C)c3)cc2)cc(C(C)(C)C)c1O`, the GI50 with A549, in the test with ACHN, with CAKI-1, with HL-60, in the test on MDA-MB-435 and with MDA-N was > 100 µM (inactive) throughout. Besides, the GI50 with Malme-3M, in the test with NCI-H226, with NCI-H23, in the test with OVCAR-3, with OVCAR-5 and in the test with OVCAR-8 was > 100 µM (inactive) in each case. The GI50 in the test on SF-268, in the test with SF-295, in the test with SK-MEL-2, with SN12C, with SNB-19 and in the test on SNB-75 was > 100 µM (inactive) each time. The GI50 in the test on T47D and in the test with TK-10 was > 100 µM (inactive) throughout.

`Cc1nc2c(Br)cc(Br)cc2c(=O)n1-c1ccccc1NC1OC(CO)C(O)C(O)C1O` (configuration not stated): the GI50 with ACHN, with CAKI-1, in the test with HL-60, with MDA-MB-435, in the test on MDA-N and with Malme-3M was > 100 µM (inactive) each time. In addition, the GI50 in the test with NCI-H226, in the test with NCI-H23, in the test with OVCAR-3, in the test on OVCAR-5, with OVCAR-8 and with SF-268 was > 100 µM (inactive) throughout. The GI50 in the test on SF-295 was > 100 µM (inactive); in the test with SK-MEL-2 it was > 100 µM (inactive); with SN12C, > 100 µM (inactive); in the test with SNB-19 it was > 100 µM (inactive); in the test with SNB-75, 61.1 µM (inactive); with T47D, > 100 µM (inactive). Moreover, the GI50 with TK-10 was > 100 µM (inactive).

Take `CCOC(=O)NC(Nc1ccc(S(=O)(=O)Nc2ncccn2)cc1)(C(=O)OCC)C(F)(F)F` (configuration not stated): the GI50 in the test with A549, in the test on ACHN, in the test on CAKI-1, in the test on HL-60, in the test with MDA-MB-435 and in the test on MDA-N was > 100 µM (inactive) in each case. The GI50 with Malme-3M, in the test with NCI-H226, in the test on NCI-H23, in the test with OVCAR-3, with OVCAR-5 and in the test on OVCAR-8 was > 100 µM (inactive) throughout. Moreover, the GI50 in the test on SF-268, with SF-295, in the test with SK-MEL-2, with SN12C, with SNB-19 and with SNB-75 was > 100 µM (inactive) throughout. Besides, the GI50 in the test with T47D was > 100 µM (inactive).
